Measurements taken from US20070031815A1, “Screening method for identifying hsp90 modulators” (University of Liverpool, priority 2003, published 2007).

Tested on: yeast cells
Test: Entry of known Hsp90 inhibitors into yeast cells
Type: cell-based
Settings: not given
Text: Yeast have many advantages in development of screening systems or biosensors-compared to mammalian cells they are robust; easy and cheap to grow; genetically stable; and represent a reduced health risk to workers (viral contamination of cell lines becomes an issue in low cost high throughput screening). […] However, yeast are not always permeable to compounds that would be able to enter mammalian cells. […] This problem has been overcome in the past by using yeast mutants that have enhanced sensitivity to toxic chemicals. These mutations are in genes described as Pleiotrophic Drug Resistance (PDR) or Multiple Drug Resistance (MDR) gene. One class of PDR genes are those affecting the ergosterol balance in the yeast membrane. Mammalian cells have cholesterol in the plasma membrane while yeast have ergosterol. Mutations in the gene ERG6 (ISE1) cause cells to become sensitive to a range of lipophilic drugs. Another class of mutations affect active drug uptake or efflux, for example mutations to the ATP dependent efflux pump PDR5 increase drug sensitivity. A combination of mutations from these different pathways further increases sensitivity. In addition to increasing permeability of the plasma membrane and reducing efflux better drug entry can also be brought about by changing the cell wall structure, this can also increase osmotic sensitivity, which facilitates release of proteins. Mutation of the GDP-mannose phosphorylase (SRB1) interferes with the glycosylation of cell wall proteins, this increases drug and osmotic sensitivity. Hsp90 itself is also involved in the maintenance of cell wall integrity via its functional interaction with Ste11. Ste11 is a MAPKKK that normally activates the MAPKK Pbs2 which in turn activates the Hog-1 transcriptional activator. Hog-1 activation modifies the cell wall in response to osmotic shock, disruption of Hog-1 causes drug and osmotic sensitivity. There are also dominant mutations which increase sensitivity to cytotoxic agents, such as ISE2 which increases sensitivity to a range of topoisomerase II inhibitors.

| Structure (SMILES) | entry into yeast cells |
| --- | --- |
| CO[C@H]1[C@@H](OC)C[C@H](C)[C@@H](OC)C2=CC(=O)C=C(NC(=O)/C(C)=C/C=C\[C@H](C)[C@@H](OC(N)=O)/C(C)=C/[C@@H]1C)C2=O [Macbecin, Macbecin I] | enter yeast cells easily |

Same assay, conditions: yeast permeability

| Structure (SMILES) | entry into yeast cells |
| --- | --- |
| CO[C@H]1[C@@H](OC)C[C@H](C)[C@@H](OC)C2=CC(=O)C=C(NC(=O)/C(C)=C/C=C\[C@H](OC)[C@@H](OC(N)=O)/C(C)=C/[C@@H]1C)C2=O [Herbimycin] | enter yeast cells easily |
| CO[C@@H]1[C@@H](OC(N)=O)[C@@H](O)[C@H](Oc2ccc3c(O)c(NC(=O)c4ccc(O)c(CC=C(C)C)c4)c(=O)oc3c2C)OC1(C)C [Novobiocin] | enter yeast cells easily |
| C=CCNC1=C2C[C@@H](C)C[C@H](OC)[C@H](O)[C@@H](C)/C=C(\C)[C@H](OC(N)=O)[C@@H](OC)/C=C\C=C(/C)C(=O)NC(=CC1=O)C2=O [Compound 17-AAG, 17-allylamino demethoxy geldanamycin] | enter yeast cells easily |
| COC1=C2C[C@@H](C)C[C@H](OC)[C@H](O)[C@@H](C)/C=C(\C)[C@H](OC(N)=O)[C@@H](OC)/C=C\C=C(/C)C(=O)NC(=CC1=O)C2=O [GA, Geldanamycin] | enter yeast cells easily |
| C[C@@H]1C[C@H]2O[C@@H]2/C=C\C=C\C(=O)Cc2c(Cl)c(O)cc(O)c2C(=O)O1 [Radicicol] | enter yeast cells easily |
